The source of these data is PubChem BioAssay (NCI).

Values joined by “and” are separate entries in the source; they are usually repeats but may differ in a detail not shown here. Identical values can stand only once.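 Protocol summary: plate cells (96-well), add compound at 5 concentrations, incubate 48 h, interpolate endpoints linearly. The concentration for 50% growth inhibition is given as GI50. TGI marks complete inhibition of growth.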

Common to all, as to assay: NCI anticancer screen, dose series, 48 h
The subject of assay [1] is A549 NSCLC.
Assay [2] concerns CAKI-1 renal.
For assay [3], the system named is HCT-116 colon.
For assay [4], the system named is HOP-62 NSCLC.
In assay [5] the test system is M14 melanoma.
The test system of assay [6] is NCI-H23 lung.
Assay [7] has as its system SF-268 CNS.
Assay [8] concerns SF-539 CNS.
For assay [9], the system named is SK-MEL-5 melanoma.
In assay [10] the test system is U251 CNS.

As to `CCN(CC)CCNc1ccc2nc(C)n3c4ccc(OC)cc4c(=O)c1c23`, the TGI in [1] was 15 µM; in [2] it was 13 µM; in assay [3] it was 6 µM; in [4], 21.7 µM; in assay [5], 24.1 µM; in [6], 18.3 µM. Also, the TGI in assay [7] was 15.3 µM; in assay [8], 18.7 µM; in [9] it was 19.1 µM; in [10], 20.6 µM.
For `CCc1n(Cc2ccc3ccccc3c2)cc[n+]1Cc1ccc2ccccc2c1`, the GI50 in [1] is 2.59 µM; in assay [2], 12.4 µM; in assay [3], 0.865 µM; in [4], 1.42 µM; in [5], 1.21 µM; in assay [6] it was 0.396 µM. The GI50 in assay [7] was 0.817 µM; in assay [8] it was 0.8 µM; in [9], 0.361 µM; in assay [10], 0.578 µM. Besides, the TGI in [1] worked out at 13.9 µM; in assay [2], 25.5 µM; in assay [3], 2.16 µM; in [4], 3.65 µM; in [5], 2.96 µM; in [6] it was 2.02 µM. The TGI in assay [7] was found to be 2.42 µM; in [8], 2.3 µM; in assay [9], 1.28 µM; in assay [10], 2.2 µM.
Turning to `COC(=O)N1C=CC2=C(C)C3Nc4ccccc4C3C(C)=C2C1` (stereo not given), the TGI was 16.8 µM in assay [1]; over 100 µM in assay [2]; 2.57 µM in [3]; 12.6 µM in assay [4]; 8.29 µM in assay [5]; over 100 µM in [6]. Moreover, the TGI in assay [7] is 74.2 µM; in assay [8], 17.2 µM; in assay [9], 37.2 µM; in [10], over 100 µM.
Regarding `CCOC(=O)N1C/C(=C\c2ccc(N(C)C)cc2)C(=O)/C(=C/c2ccc(N(C)C)cc2)C1`, the TGI in assay [1], in assay [2], in assay [3], in [4], in assay [5] and in assay [6] was over 100 µM each time. The TGI in assay [7], in assay [8], in [9] and in assay [10] was over 100 µM each time.
Turning to `O=C1C=CC(=O)N1c1ccc2ccccc2c1`, the GI50 in assay [1] is 20.3 µM; in assay [2], 4.65 µM; in assay [3] it was 3.93 µM; in assay [4], 16.2 µM; in assay [5] it was 14.5 µM; in assay [6], 17.1 µM. In addition, the GI50 in assay [7] is 14.5 µM; in [8], 17.7 µM; in [9], 16.4 µM; in assay [10] it was 17.8 µM. In addition, the TGI in assay [1] was 43.2 µM; in [2], 17.8 µM; in assay [3], 12.4 µM; in [4], 31.1 µM; in assay [5] it was 28.4 µM; in [6] it was 37.2 µM. For the same molecule, the TGI amounted to 28.3 µM in assay [7], 33.9 µM in assay [8], 30.4 µM in [9] and 33.8 µM in [10].
For `Cc1ncc2c(n1)CCC1=C2OS(=O)(=O)CC1N(C)C` (stereo not given), the TGI in [1], in assay [2], in assay [3], in assay [4], in assay [5] and in [6] was over 100 µM throughout. Further, the TGI in assay [7], in [8], in assay [9] and in [10] was over 100 µM throughout.
As to `COc1ccc(-c2cc(-c3ccco3)c(C#N)c(=O)n2C2OC(COC(C)=O)C(OC(C)=O)C(OC(C)=O)C2OC(C)=O)cc1` (stereo not given), the TGI was over 100 µM in assay [1]; over 100 µM in assay [2]; > 100 µM and 21.1 µM in assay [3]; > 100 µM and 79.2 µM in assay [4]; > 100 µM and 52.5 µM in assay [5]; over 100 µM in assay [6]. For the same molecule, the TGI is over 100 µM in assay [7]; > 100 µM and 23.9 µM in assay [8]; over 100 µM in [9]; > 100 µM and 34.7 µM in assay [10]. In addition, the GI50 in [4] is > 100 µM and 23 µM; in assay [5] it was > 100 µM and 23.2 µM; in [7], > 100 µM and 28.2 µM; in assay [8] it was > 100 µM and 11.7 µM; in [10], > 100 µM and 16.1 µM.
As to `COc1cc2c(c(OC)c1OC)[C@@H]1CCCCC[C@@H]1CCC2=O`, the TGI in assay [1], in assay [2], in assay [3], in assay [4], in assay [5] and in assay [6] was over 100 µM each time. The TGI in [7], in assay [8], in [9] and in assay [10] was over 100 µM each time.
